From patent US11279735B2, “Cyclic peptide antibiotics” (priority 2017, dated 2022)
Converted amounts (≈) assume the structure as drawn. “And” between values parts separate entries of the source, which are not always exact repeats. Equal values may be shown once.

These compounds were tested on Escherichia coli (E. coli) strain CFT073 ATCC 700928. Settings: ATCC 700928, 22 h.
Type: cell-based
Method: In vitro antimicrobial activity of each compound was determined by measuring minimal inhibitor concentrations (MICs) using the broth micro-dilution technique as approved by the Clinical and Laboratory Standards Institute (CLSI) (Methods for Dilution Antimicrobial Susceptibility Tests for Bacteria that Grow Aerobically; Approved Standard—Eighth Edition. CLSI document M07-A8. Wayne, Pa.: Clinical and Laboratroy Standards; 2009). Antibacterial activity was measure against Escherichia coli (E. coli) strain CFT073 ATCC 700928, which is a clinically relevant Gram-negative strain. Cells were inoculated onto plates of Mueller Hinton Agar and grown at 37° C. for 16-18 hours. Inocula suspensions were prepared by scraping cells into 1 mL of testing media (Mueller Hinton II cation adjusted Broth supplemented with 0.002% v/v Tween-80) and diluting to a final OD600 nm of 0.01.
Test compounds were prepared in DMSO at a concentration of 100 uM The compounds were tested under several different dilution formats and the data are reported in Tables 6, 7 and 8. In protocol 1, the compound stocks were diluted into testing media at a concentration of 64 μg/ml and serial 2-fold dilutions were made in the same media, in 96-well U bottom microtiter dishes, for a total of 10 compound concentrations. In protocol 2, the compound stocks were diluted into testing media at a concentration of 4 μg/mL and serial 2-fold dilutions were made in the same media, in 96-well U bottom microtiter dishes, for a total of 10 compound concentrations. In protocol 3, compound stocks were diluted into testing media at a concentration of 0.5 μg/mL, with serial 2-fold dilutions conducted as described above. In protocol 4, compound stocks were diluted into testing media at a concentration of 0.13 μg/mL, with serial 2-fold dilutions conducted as described above. Inocula suspensions were added to the 2-fold serial dilutions of test compounds to a final density of OD OD600 nm of 0.0005 and incubated at 35° C. for 22 hours.

| MIC [µM] | SMILES |
| --- | --- |
| 25 (≈ 18.8 µg/mL) | CCCCCCCCCC[C@H]1OC(=O)CNC(=O)[C@H]([C@H](C)O)NC(=O)[C@H](CN)NC(=O)[C@H]([C@H](C)CC)NC(=O)C(CCC(F)(F)F)N(C)C(=O)[C@@H]1C (single isomer, unassigned) [Example 17, 9-(aminomethyl)-19-decyl-6-(1-hydroxyethyl)-16,18-dimethyl-12-sec-butyl-15-(3,3,3-trifluoropropyl)-1-oxa-4,7,10,13,16-pentazacyclononadecane-2,5,8,11,14,17-hexone] |
| 12 (≈ 8.6 µg/mL) | CCCCCC[C@H]1OC(=O)CNC(=O)[C@H]([C@H](C)O)NC(=O)[C@H](CN)NC(=O)[C@H](C2CCC(F)(F)CC2)NC(=O)[C@H](CC(C)C)N(C)C(=O)[C@@H]1C (single isomer, unassigned) [Example 52] |
| 25 (≈ 19.3 µg/mL) | CCCCCCCCCC[C@H]1OC(=O)CNC(=O)[C@H]([C@H](C)O)NC(=O)[C@H](CN)NC(=O)[C@H](C2CCC(F)(F)CC2)NC(=O)[C@H](CC(C)C)N(C)C(=O)[C@@H]1C (single isomer, unassigned) [Example 53] |
| 8.8 (≈ 5.97 µg/mL) | CCCCCC[C@H]1OC(=O)CNC(=O)[C@H]([C@H](C)O)NC(=O)[C@H](CN)NC(=O)C(C2CC3CCC2C3)NC(=O)[C@H](CCC)N(C)C(=O)[C@@H]1C (single isomer, unassigned) [Example 69] |
| 1.1 (≈ 0.88 µg/mL) | CCC[C@H]1C(=O)N[C@@H](C2CCCCCC2)C(=O)N[C@@H](CN)C(=O)N[C@@H](COC2CC3(CC(N)C3)C2)C(=O)N[C@H](C)CO[C@H](CC2CC3(CCC3)C2)[C@@H](C)C(=O)N1C (single isomer, unassigned; stereoisomer 1) [Example 166] |
| 0.78 (≈ 0.624 µg/mL) | CCC[C@H]1C(=O)N[C@@H](C2CCCCCC2)C(=O)N[C@@H](CN)C(=O)N[C@@H](COC2CC3(CC(N)C3)C2)C(=O)N[C@H](C)CO[C@H](CC2CC3(CCC3)C2)[C@@H](C)C(=O)N1C (single isomer, unassigned; stereoisomer 2) [Example 170] |
| 18 (≈ 14 µg/mL) | CCCCCC[C@@H]1OC(=O)CNC(=O)[C@H](CNC(=O)C2CCNCC2)NC(=O)[C@H](CN)NC(=O)[C@H](C2CCCCC2)NC(=O)[C@H](CC(C)C)N(C)C(=O)[C@@H]1C (stereo in doubt) [Example 155] |
| 71 (≈ 55 µg/mL) | CCCCCCC1OC(=O)CNC(=O)[C@H](CNC(=O)Cn2ccnc2)NC(=O)[C@H](CN)NC(=O)[C@H](C2CCCCC2)NC(=O)[C@H](CC(C)C)N(C)C(=O)[C@@H]1C (stereo in doubt) [Example 160, N-[[(6S,9S,12S,15S,18R,19R)-9-(Aminomethyl)-12-cyclohexyl-19-hexyl-15-isobutyl-16,18-dimethyl-2,5,8,11,14,17-hexaoxo-1-oxa-4,7,10,13,16-pentazacyclononadec-6-yl]methyl]-2-imidazol-1-yl-acetamide] |
| 4.4 (≈ 3.47 µg/mL) | CCCCCCC1OC(=O)CNC(=O)[C@H](CNC(=O)C2CC3(CNC3)C2)NC(=O)[C@H](CN)NC(=O)[C@H](C2CCCCC2)NC(=O)[C@H](CC(C)C)N(C)C(=O)[C@@H]1C (stereo in doubt) [Example 165, N-[[(6S,9S,12S,15S,18R,19R)-9-(Aminomethyl)-12-cyclohexyl-19-hexyl-15-isobutyl-16,18-dimethyl-2,5,8,11,14,17-hexaoxo-1-oxa-4,7,10,13,16-pentazacyclononadec-6-yl]methyl]-2-azaspiro[3.3]heptane-6-carboxamide] |
| 3.1 (≈ 2.2 µg/mL) | CCCCCCCCCC[C@H]1OC(=O)CNC(=O)[C@H]([C@H](C)O)NC(=O)[C@H](CN)NC(=O)[C@H]([C@H](C)CC)NC(=O)[C@H](CC(C)C)N(C)C(=O)[C@@H]1C [Example 1, (6S,9S,12S,15S,18R,19R)-9-(aminomethyl)-12-((R)-sec-butyl)-19-decyl-6-((S)-1-hydroxyethyl)-15-isobutyl-16,18-dimethyl-1-oxa-4,7,10,13,16-pentaazacyclononadecane-2,5,8,11,14,17-hexaone] |
| 3.1 (≈ 2.2 µg/mL) | CCCCCCCCCC[C@H]1OC(=O)CNC(=O)[C@H]([C@H](C)O)NC(=O)[C@H](CN)NC(=O)[C@H]([C@H](C)CC)NC(=O)[C@H](CC2CC2)N(C)C(=O)[C@@H]1C [Example 2, (6S,9S,12S,15S,18R,19R)-9-(aminomethyl)-12-((R)-sec-butyl)-15-(cyclopropylmethyl)-19-decyl-6-((S)-1-hydroxyethyl)-16,18-dimethyl-1-oxa-4,7,10,13,16-pentaazacyclononadecane-2,5,8,11,14,17-hexaone] |
| 3.1 (≈ 2.25 µg/mL) | CCCCCCCCCC[C@H]1OC(=O)[C@H](C)NC(=O)[C@H]([C@H](C)O)NC(=O)[C@H](CN)NC(=O)[C@H]([C@H](C)CC)NC(=O)[C@H](CC(C)C)N(C)C(=O)[C@@H]1C [Example 3, (3S,6S,9S,12S,15S,18R,19R)-9-(aminomethyl)-12-((R)-sec-butyl)-19-decyl-6-((S)-1-hydroxyethyl)-15-isobutyl-3,16,18-trimethyl-1-oxa-4,7,10,13,16-pentaazacyclononadecane-2,5,8,11,14,17-hexaone] |
| 13 (≈ 9.44 µg/mL) | CCCCCCCCCC[C@H]1OC(=O)[C@@H](C)NC(=O)[C@H]([C@H](C)O)NC(=O)[C@H](CO)NC(=O)[C@H]([C@@H](C)CC)NC(=O)[C@H](CC(C)C)N(C)C(=O)[C@@H]1C [Example 4, (3R,6S,9S,12S,15S,18R,19R)-12-((S)-sec-butyl)-19-decyl-6-((S)-1-hydroxyethyl)-9-(hydroxymethyl)-15-isobutyl-3,16,18-trimethyl-1-oxa-4,7,10,13,16-pentaazacyclononadecane-2,5,8,11,14,17-hexaone] |
| 3.1 (≈ 2.24 µg/mL) | CCCCCCCCCC[C@H]1OC(=O)CNC(=O)[C@H](CO)NC(=O)[C@H](CO)NC(=O)[C@H](C2CCCCC2)NC(=O)[C@H](CC(C)C)N(C)C(=O)[C@@H]1C [Example 7, (6S,9S,12S,15S,18R,19R)-12-cyclohexyl-19-decyl-6,9-bis(hydroxymethyl)-15-isobutyl-16,18 dimethyl-1-oxa-4,7,10,13,16-pentazacyclononadecane-2,5,8,11,14,17-hexone] |
| 25 (≈ 17.1 µg/mL) | CCCCCCC[C@H]1OC(=O)CNC(=O)[C@H]([C@H](C)O)NC(=O)[C@H](CO)NC(=O)[C@H]([C@H](C)CC)NC(=O)[C@H](CC(C)C)N(C)C(=O)[C@@H]1CC [Example 8, (6S,9S,12S,15S,18R,19R)-12-((R)-sec-Butyl)-18-ethyl-9-heptyl-6-((S)-1-hydroxyethyl)-9-(hydroxymethyl)-15-isobutyl-16-methyl-1-oxa-4,7,10,13,16-pentaazacyclononadecane-2,5,8,11,14,17-hexaone] |
| 6.3 (≈ 4.88 µg/mL) | CCCCCC[C@H]1OC(=O)CNC(=O)[C@H]([C@H](C)O)NC(=O)[C@H](CO)NC(=O)[C@H]([C@H](C)CC)NC(=O)[C@H](CC(C)C)N(C)C(=O)[C@@H]1CCCc1ccc(C)cc1 [Example 9, (6S,9S,12S,15S,18R,19R)-12-((R)-sec-butyl)-19-hexyl-6-((S)-1-hydroxyethyl)-9-(hydroxymethyl)-15-isobutyl-16-methyl-18-(3-(p-tolyl)propyl)-1-oxa-4,7,10,13,16-pentaazacyclononadecane-2,5,8,11,14,17-hexaone] |
| 6.3 (≈ 4.48 µg/mL) | CCCCCCCCCC[C@H]1OC(=O)CNC(=O)[C@H](CCO)NC(=O)[C@H](CN)NC(=O)[C@H]([C@H](C)CC)NC(=O)[C@H](CC(C)C)N(C)C(=O)[C@@H]1C [Example 10, (6S,9S,12S,15S,18R,19R)-9-(aminomethyl)-19-decyl-6-(2-hydroxyethyl)-15-isobutyl-16,18-dimethyl-12-[(1R)-1-methylpropyl]-1-oxa-4,7,10,13,16-pentazacyclononadecane-2,5,8,11,14,17-hexone] |
| 25 (≈ 16 µg/mL) | CCCCCC[C@H]1OC(=O)CNC(=O)[C@H](CO)NC(=O)[C@H](CN)NC(=O)[C@H]([C@H](C)CC)NC(=O)[C@H](CC(C)C)N(C)C(=O)[C@@H]1C [Example 11, (6S,9S,12S,15S,18R,19R)-9-(aminomethyl)-19-hexyl-6-(hydroxymethyl)-15-isobutyl-16,18-dimethyl-12-[(1R)-1-methylpropyl]-1-oxa-4,7,10,13,16-pentazacyclononadecane-2,5,8,11,14,17-hexone] |
| 4.7 (≈ 3.28 µg/mL) | CCCCCCCCCC[C@H]1OC(=O)CNC(=O)[C@H](CO)NC(=O)[C@H](CN)NC(=O)[C@H]([C@H](C)CC)NC(=O)[C@H](CC(C)C)N(C)C(=O)[C@@H]1C [Example 12, (6S,9S,12S,15S,18R,19R)-9-(aminomethyl)-19-decyl-6-(hydroxymethyl)-15-isobutyl-16,18-dimethyl-12-[(1R)-1-methylpropyl]-1-oxa-4,7,10,13,16-pentazacyclononadecane-2,5,8,11,14,17-hexone] |

Same assay, conditions: E. coli CFT073 ATCC 700928; Mueller Hinton II cation adjusted Broth with 0.002% v/v Tween-80; 35° C. for 22 hours; lowest concentration that completely prevented bacterial growth

| SMILES | MIC |
| --- | --- |
| CCCCCCCCCC[C@H]1OC(=O)CNC(=O)[C@H](CO)NC(=O)[C@H](CO)NC(=O)[C@H]([C@H](C)CC)NC(=O)[C@H](CC(C)C)N(C)C(=O)[C@@H]1C [Example 5, (6S,9S,12S,15S,18R,19R)-12-((R)-sec-butyl)-19-decyl-6,9-bis(hydroxymethyl)-15-isobutyl-16,18-dimethyl-1-oxa-4,7,10,13,16-pentaazacyclononadecane-2,5,8,11,14,17-hexaone] | 4.7 µM and 3.1 µM |
